Data from publication PMC12518639, “Apomorphine is a novel necroptosis inhibitor targeting mixed lineage kinase domain-like protein oligomerization” (Cell Death Discovery, 2025).
Counter-ions that a name gives are not always drawn. Like-named read-outs stand apart in the source and are kept apart here.

Assays:
THP-1-HMGB1-Lucia cells = assay: TBZ-induced necroptosis screening by HMGB1-luciferase release; type: cell-based, human; settings: 8 h, read-out: % Inhibition (luciferase activity relative to TBZ-treated supernatant); for activity at 20 µM: Homo sapiens
Description: (§1) To identify potential inhibitors of the necroptosis pathway targeting MLKL or the process of p-MLKL pore formation on the membrane, we screened a library of 2150 compounds, including FDA-approved drugs and those in phase 1–3 clinical trials, using THP-1-HMGB1-Lucia™ cells expressing the HMGB1-luciferase fusion protein. The cells were treated with a necroptosis-inducing mixture containing TNF-α, BV6, and Z-VAD-FMK (TBZ) in addition to the compound library (Fig. 1A). The supernatants were harvested to measure luciferase activities for necroptosis. The luciferase activities of cell supernatants treated with TBZ alone were considered as the maximum release (100%) of HMGB1-luciferase. NEC-1, a known RIP1 inhibitor used in both humans and mice, was used as a positive control. […] Next, we performed a propidium iodide (PI) uptake assay to exclude cytotoxic compounds using THP-1 cells. Then, we selected candidate molecules that were arbitrarily less than 30% of those treated with TBZ. […] Next, the inhibition levels of p-MLKL were tested to select MLKL-targeting molecules (Figs. 1C and S1A). Compounds that reduced p-MLKL levels to less than 30% of TBZ-treated controls were considered as potential inhibitors of MLKL phosphorylation. Conversely, compounds that maintained p-MLKL levels above 70% were selected because they are presumed to prevent the formation of pores in the plasma membrane by interfering with oligomerization.
A clinical chemical library containing 2150 items (Korea Chemical Bank, South Korea), under phase 1–3 clinical trials, including FDA-approved drugs, was used to screen for necroptosis inhibitors. Each chemical was dissolved in DMSO and diluted to 20 μM in DPBS for treatment.
THP-1-HMGB1-Lucia^TM cells were pretreated with the pan-caspase inhibitor Z-VAD-FMK (50 μM, tlrl-vad, InvivoGen) and each chemical for 1 h, and followed by TNF-α (100 ng/mL, TNF0501, NKMAXBio, Seongnam, S. Korea) and Smac mimetic BV6 (10 μM, B1332-5, Biovision, Santa Clara, CA, USA), termed TBZ mixture, were added for necroptosis screening. The RIP1 inhibitor, NEC-1 (1846, Biovision), and MLKL inhibitor, NSA (432531-71-0, Sigma-Aldrich, St. Louis, MO, USA), were used as controls. The cell supernatant was harvested to measure HMGB1 levels using a luciferase assay kit (E1500, Promega, Madison, WI, USA) by a luminometer (Centro XS3 LB 960, Berthold Technologies, Bad Wildbad, Germany). The inhibition of necroptosis (%) was calculated as: (sample-treated data – medium-only data) × 100/(TBZ-treated data – medium-only data). APO [STK088477, (6aS)-6-methyl-5,6,6a,7-tetrahydro-4H-dibenzo[de,g]quinoline-10,11-diol, Vitas-M Laboratory, Hong Kong] was stored at −70 °C after aliquoting with DMSO. APO was used after dilution in DPBS. APO is susceptible to auto-oxidation in solution in the presence of light and air. DPBS containing 5 mM DTT was used for Re-APO. Ox-APO was prepared by incubating APO in DPBS at 25 °C for 24 h in the presence of light and air, followed by removal of any precipitate by filtration through 0.2 μm.

p-MLKL = assay: Western blot of phosphorylated MLKL in whole cell lysates; type: cell-based, human; settings: Homo sapiens, read-out: p-MLKL/MLKL ratio relative to TBZ-treated cells (% Value)
Description: as §1
(§2) The cells were harvested and lysed in 1× RIPA buffer (R4100-010, GenDEPOT, Katy, TX, USA) containing protease (P3100-001, GenDEPOT) and phosphatase (1862495, Thermo Fisher Scientific) inhibitors. WCLs were then centrifuged at 20,000×g for 30 min at 4 °C and subjected to non-reducing or reducing 8–12% SDS-PAGE gel electrophoresis. The membrane was blocked with 5% non-fat milk in TBS and probed with antibodies. Antibodies to hMLKL (14993S), mMLKL (97705S), phospho-hMLKL (Ser358) (91689S), phospho-mMLKL (Ser345) (37333S), phospho-hRIP1 (Ser166) (65746S), mRIP1 (3493S), phospho-mRIP1 (Ser321) (38662S), phospho-hRIP3 (Ser227) (93654), mRIP3 (95702S), p-mRIP3 (Thr231/Ser232) (91702S), and LDH (2012S) (Cell Signaling Technology, Danvers, MA, USA), and GAPDH (LF-PA0018, Abfrontier, S. Korea), hRIP1 (ab72139, Abcam, Cambridge, UK), hRIP3 (sc-135170, Santa Cruz Biotechnology, Dallas, TX, USA), HMGB1 (ab78923, Abcam), and LAMP1 (ab24170, Abcam) antibodies were used.
Fig. S1 Assessment of p-MLKL inhibition to identify MLKL-targeting molecules. (A) Quantification graph corresponding to Fig. 1C. […] Whole-cell lysates (WCLs) were collected and subjected to Western blot analysis under reducing conditions using antibodies against p-MLKL, MLKL, and GAPDH. The p-MLKL/MLKL ratio was quantified and compared to that of TBZ-treated cells. Data represent the mean of three independent experiments. (B) Quantification graph corresponding to Fig. 1D. […] Cytosolic and membrane fractions were collected and analyzed by Western blot under reducing conditions. The levels of p-MLKL and p-RIP1 were normalized to LDH (cytosolic marker) and LAMP1 (membrane marker), respectively. Quantified ratios were compared to those of TBZ-treated cells (n = 3 independent experiments).

mouse MLKL = system: mouse MLKL; set-up: method as in PMID 28827318; settings: cited from earlier work
Wt-hMLKL = molecular target: T1, Wt-hMLKL (Homo sapiens, UniProt Q8NB16); assay: SPR competition assay of NSA with Ox-APO; type: binding; settings: 200 μM NSA, 750 μM Ox-APO
T1 construct: purchased Abcam ab241453
T1 sequence (Q8NB16 1-471): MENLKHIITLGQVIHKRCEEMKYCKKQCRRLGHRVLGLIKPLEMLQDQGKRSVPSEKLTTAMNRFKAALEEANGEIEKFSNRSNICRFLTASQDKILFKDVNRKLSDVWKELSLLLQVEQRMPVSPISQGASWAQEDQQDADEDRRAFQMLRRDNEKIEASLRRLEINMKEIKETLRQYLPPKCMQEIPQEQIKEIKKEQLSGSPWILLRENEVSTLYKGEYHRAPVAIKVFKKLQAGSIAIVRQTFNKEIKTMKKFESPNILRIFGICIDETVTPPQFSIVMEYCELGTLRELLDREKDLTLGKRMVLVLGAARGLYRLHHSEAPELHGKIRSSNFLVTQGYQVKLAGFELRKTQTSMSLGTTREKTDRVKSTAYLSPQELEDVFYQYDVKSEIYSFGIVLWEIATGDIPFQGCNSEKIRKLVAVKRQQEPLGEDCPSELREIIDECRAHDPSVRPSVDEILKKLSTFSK
Description: Fig. S4 Competition assay of NSA with Ox-APO by SPR. Wt-hMLKL was immobilized on a CM5 chip and 750 μM Ox-APO was overflowed in the presence or absence of 200 μM NSA.

p-MLKL and p-RIP1 = assay: Western blot of cytosol and membrane fractions; type: cell-based, human; settings: THP-1, TBZ, 20 μM
Description: as §2
Cell membrane fractionation was performed to determine whether MLKL oligomers were retained in the cell membrane fraction. Briefly, THP-1 cells were harvested and resuspended in 20 mM TBS (pH 7.4) containing 10 mM KCl, 1 mM MgCl2, protease inhibitor (P3100-001, GenDEPOT), and phosphatase inhibitor (1862495, Thermo Fisher Scientific). The cell suspension was passed through a 22-gauge needle and centrifuged at 20,000×g for 15 min and stored as the cytoplasmic fraction. The pellet was resuspended in lysis buffer and stored as the crude membrane fraction.
Fig. S1 Assessment of p-MLKL inhibition to identify MLKL-targeting molecules. (A) Quantification graph corresponding to Fig. 1C. THP-1 cells were treated with TBZ in the presence of secondarily selected compounds (S1–S72, 20 μM). Whole-cell lysates (WCLs) were collected and subjected to Western blot analysis under reducing conditions using antibodies against p-MLKL, MLKL, and GAPDH. The p-MLKL/MLKL ratio was quantified and compared to that of TBZ-treated cells. Data represent the mean of three independent experiments. (B) Quantification graph corresponding to Fig. 1D. THP-1 cells were treated with TBZ in the presence of third-round selected compounds (S1–S62, 20 μM). Cytosolic and membrane fractions were collected and analyzed by Western blot under reducing conditions. The levels of p-MLKL and p-RIP1 were normalized to LDH (cytosolic marker) and LAMP1 (membrane marker), respectively. Quantified ratios were compared to those of TBZ-treated cells (n = 3 independent experiments).

ulcerative colitis = system: ulcerative colitis; set-up: method as in PMID 34389633; settings: phase II trial; cited from earlier work
[1] = 20 μM compound with TBZ, TBZ alone = 100, DPBS = 0
[2] = THP-1, TBZ and 20 μM compound, 8 h, whole cell lysates

Compound | activity at 20 µM (THP-1-HMGB1-Lucia cells; [1]) [%] | activity at 20 µM (p-MLKL; [2]) [%] | also measured
Cc1ncc(-c2ccnc(Nc3ccc(S(C)(=O)=O)cc3)n2)n1C(C)C [S28, AZD 5438] | 0 | 55 | –
Cc1ccc(Nc2nccc(N(C)c3ccc4c(C)n(C)nc4c3)n2)cc1S(N)(=O)=O [S10, Pazopanib] | 9.4 | 86 | –
COc1nccnc1NS(=O)(=O)c1ccc(NC(=O)/C=C/c2ccc([N+](=O)[O-])s2)cc1 [NSA, Necrosulfonamide] | – | – | activity against mouse MLKL (mouse MLKL): ineffective; competition for binding to hMLKL (Wt-hMLKL): competed with Ox-APO
CN1CCN(c2ccc(Nc3c4ccccc4nc4ccccc34)cc2)CC1 [S1, JP-1302] | – | – | activity (THP-1-HMGB1-Lucia cells; [1]): 0.4%; RIP1 phosphorylation (p-MLKL and p-RIP1): seemed to inhibit
CCCCC1C(=O)N(c2ccccc2)N(c2ccc(O)cc2)C1=O (stereo not drawn) [S4, Oxyphenbutazone] | 0 | 38 | –
C=C1C(=O)O[C@@H]2/C=C(\C)CC/C=C(\C)CC[C@@H]12 [S35, Costunolide] | 9 | 30 | –
COc1cc2ncnc(Nc3cccc(Cl)c3)c2cc1OC [S3, Tyrphostin] | 7.5 | 70 | effect on p-MLKL levels in both cytosolic and membrane fractions (p-MLKL and p-RIP1): almost no effect
CN1C(=O)[C@@H](NC(=O)c2nnc(Cc3ccccc3)[nH]2)COc2ccccc21 [GSK2982772] | – | – | therapeutic benefit (ulcerative colitis): failed to show significant therapeutic benefit; tolerability in humans (ulcerative colitis): well tolerated
CC1(C)CC[C@]2(C(=O)O)CC[C@]3(C)[C@H](C(=O)C=C4[C@@]5(C)C=C(C#N)C(=O)C(C)(C)[C@@H]5CC[C@]43C)[C@@H]2C1 [S16, Bardoxolone] | 0 | 0 | –
COc1cc2nccc(Oc3ccc(NC(=O)Nc4cc(C)on4)c(Cl)c3)c2cc1OC [S46, Tivozanib] | 9 | 18 | –
C=C1C(=O)O[C@H]2[C@H]1CC/C(C)=C/CC[C@@]1(C)O[C@@H]21 [S38, Parthenolide] | 0 | 40 | –
Cc1ccc(C(=O)Nc2ccc(CN3CCN(C)CC3)c(C(F)(F)F)c2)cc1C#Cc1cnc2cccnn12 [S17, Ponatinib] | – | – | activity at 20 µM (THP-1-HMGB1-Lucia cells): 4.5%; activity at 20 µM (p-MLKL; THP-1, 8 h): 2%
O=C(NC1CCNCC1)c1[nH]ncc1NC(=O)c1c(Cl)cccc1Cl [S39, AT7519] | 19.5 | – | –
O=C1c2c(O)ccc(O)c2C(=O)c2c(NCCNCCO)ccc(NCCNCCO)c21 [S58, Mitoxantrone hydrochloride] | 7.6 | 39 | –
Cc1ccc(F)c(NC(=O)Nc2ccc(-c3cccc4[nH]nc(N)c34)cc2)c1 [S20, Linifanib] | 0 | – | –
Nc1ncnc2c1c(I)cn2[C@@H]1O[C@H](CO)[C@@H](O)[C@H]1O [S47, 5-Iodotubercidin] | – | – | activity (THP-1-HMGB1-Lucia cells; [1]): 4.9%
CC(=O)Oc1ccccc1C(=O)Nc1ncc([N+](=O)[O-])s1 [S15, Nitazoxanide] | 1.2 | 100 | effect on p-MLKL levels in both cytosolic and membrane fractions (p-MLKL and p-RIP1): almost no effect
CC(C)(C)c1nc(-c2cccc(NS(=O)(=O)c3c(F)cccc3F)c2F)c(-c2ccnc(N)n2)s1 [S31, Dabrafenib] | 4.5 | 0 | –
O=C(Nc1ccc([N+](=O)[O-])cc1Cl)c1cc(Cl)ccc1O [S72, Niclosamide] | 0.9 | 35 | –
O=C(Nc1ccc(Br)cc1)c1cccc(S(=O)(=O)Nc2ccc(Br)cc2)c1 [S19, N-(4-Bromophenyl)-3-[[(4-bromophenyl)amino]sulfonyl]benzamide] | 5.3 | 55 | –
